From US9975860B2, “Anti-angiogenic compounds” (UNIVERSITY COLLEGE DUBLIN—NATIONAL UNIVERSITY OF IRELAND, …, priority 2014, dated 2018) come the findings set out here.

Data set [1] relates to primary hyaloid vessels in zebrafish. The experiment in a line: Quantification of primary hyaloid vasculature branch number in Tg(fli1:EGFP) zebrafish. It is filed as in vivo. The protocol:
All experiments were carried out under ethical approval granted by the UCD animal research ethics committee. Tg(fli1:EGFP) zebrafish were maintained according to standard procedures on a 14 hr light/10 hr dark cycle at 28° C. Embryos were obtained by natural spawning and developmental stages established by time and morphological criteria. At 48 hours post fertilisation (hpf), 5 embryos per well were placed in 400 μl of Embryo Medium/0.1% DMSO and incubated with compound (typically, 10 μM) at 28° C. on a 14 h light/10 h dark cycle. At 5 days post fertilisation (dpf), larvae were euthanised, and fixed in 4% PFA at 4° C. overnight before analysis.
Prior to analysis of the intraocular vasculature, the control and treated larvae were observed under an Olympus SZX16 stereo zoom microscope and screened for general malformations. Overall patterning of the vasculature (fin, gut and intersegmental vessels) was examined for abnormalities. Right lenses were dissected from the larvae and transferred to depression slides for observation under epi-fluorescence in the Olympus SZX16. Patterning of the hyaloid vessels on the treated larval lenses was compared to 0.1% DMSO controls and the archetypal pattern previously described (Alvarez et al., 2007; Alvarez et al., 2009). The number of primary vessels radiating from the back of the lens (3-4 main branches at 5 dpf in controls and previously described), was counted and the average number was graphed for each drug.
(§1) All experimental protocols were carried out as per example 1 and 2. Briefly, zebrafish larvae were treated with 10 μM of AT-051/41206012 (chemical name 2-[2-(2-methoxyphenyl)ethenyl]pyrazine) purchased from Specs (The Netherlands). At 6 or 48 hours post fertilisation (hpf), 5 embryos per well were placed in 400 μl of Embryo Medium/0.1% DMSO and incubated with 10 μM AT-051/41206012 at 28° C. on a 14 h light/10 h dark cycle. Larvae were treated from 6-48 hpf (intersegmental vessel study) or from 48 to 120 hpf (primary hyaloid vessel study). At the end of the study, larvae were euthanized and fixed in 4% PFA at 4° C. overnight before analysis.
(§2) The number of intersegmental vessels was counted and the average number was graphed for each drug. Right lenses were dissected from the larvae and transferred to depression slides for observation and the number of primary hyaloid vessels radiating from the back of the lens (3-4 main branches at 5 dpf in controls and previously described), was counted and the average number was graphed for each drug.

The test system of data set [2] is intersegmental vasculature in zebrafish. The experiment in a line: Quantification of intersegmental vessel number in zebrafish. It is filed as in vivo. The conditions noted are these: 10 μM; zebrafish embryos treated 6 hpf to 48 hpf. The protocol: At 6 hours post fertilisation, 5 embryos per well were placed in 400 μL of embryo medium/0.1% DMSO and incubated with 10 μM compound at 28° C. on a 14 h light/10 h dark cycle. At 48 hpf larvae were manually dechorionated, euthanised, and fixed in 4% PFA at 4° C. overnight before analysis. The larvae were then washed with PBS and transferred to depression slides for observation under epi-fluorescence in an Olympus SZX16 fluorescent microscope. The number of intersegmental vessels was counted and the average number was graphed for each drug.
as §1, §2

The subject of data set [3] is human retinal (ARPE-19) cells. Put plainly: MTT cell viability assay in ARPE-19. The class given is cell-based. The conditions noted are these: 5, 10, 25, 50, 75 or 90 μM, 96 hours. The protocol:
A 3-(4,5-dimethylthiozol-2-yl)-2,5-diphenyltetrazolium bromide (MTT) dye reduction assay was carried out to determine the cytotoxicity of each compound on either human microvascular endothelial cells (HMECs) or human retinal pigmented epithelium cells (ARPE-19). Cells were maintained in a 95% air and 5% CO2 atmosphere at 37° C. in Dulbecco modified Eagle medium (DMEM, Sigma Aldrich) with 10% fetal bovine serum, 2 mM Gibco® L-glutamine and 100 units/ml penicillin, 1 mg/ml streptomycin (Invitrogen) supplementation. On day 1, cells were trypsinized (Trypsin-EDTA 1×) and seeded 1.4×10^4 cells per well of a 96 well plate and incubated overnight. On day 2, cells were serum staved in DMEM with L-glutamine and penicillin-streptomycin supplementation for 24 h. On day 3, cells were drug treated for 24 h (HMECs) or 96 h (ARPE-19 cells) with 0.1% DMSO or 10 μM to 90 μM of each compound 4, 8, 15, 18 or 20, with 4 replicate wells of each compound. After 24-96 h, cells were incubated with […] 5 mg/ml MTT labelling Reagent (Roche) for 2 h. Subsequently, when purple formazan crystals formed cells were incubated with 1× solubilisation solution (Roche) for 4 h and absorbance read at 570 nm using a microplate reader.
(Tetrazolium assays rely on reduction of a dye to a coloured formazan, in cell work by metabolically active cells.)

In another data set the test system is mouse aortic ring. Put plainly: Ex vivo mouse aortic ring assay (sprout formation). The note with it: 10 μM; C57/BL6 mouse aortic rings in matrigel; vs 0.1% DMSO; hydrochloride. How it is done:
Aortae from sex matched C57/BL6 littermates were cleansed of adipose tissue, cut into 2 mm rings and immersed in matrigel. Aortic rings (6 per experiment) were treated with 0.1% DMSO (vehicle control/VC) or with 10 μM of Compound 4, Compound 12, Compound 15 or Compound 20. Sprouts from the perimeter of the aortic ring were counted and quantified as percentage of vehicle control (VC).

[4] abbreviates: 10 μM, zebrafish larvae treated 48 hpf to 5 dpf, vs 0.1% DMSO control.
[5] abbreviates: concentrations below 10 μM (range 1, 2.5, 5, 7.5 and 10 μM tested), zebrafish larvae 48 hpf to 5 dpf.

Structures are written as SMILES. Entries after “also recorded” stand apart in the source; their conditions may differ.

Consider `COc1ccccc1/C=C/c1cnccn1` [AT-051/41206012, 2-[2-(2-methoxyphenyl)ethenyl]pyrazine], for which, in data set [1] (setting [4]), the “inhibition of developmental angiogenesis of the hyaloid vasculature (number of primary hyaloid vessels)” value (from here on “inhibition … (number of primary hyaloid vessels)”) was “significantly inhibits developmental angiogenesis of zebrafish hyaloid vessels; also recorded: does inhibit developmental angiogenesis of the zebrafish hyaloid vasculature in a statistically significant manner”. The “inhibition of developmental angiogenesis of intersegmental vessels (number of intersegmental vessels)” value (shortened to “inhibition … (number of intersegmental vessels)”) in data set [2] is on record as “does not inhibit developmental angiogenesis of the intersegmental vessels; also recorded: does not affect the development of intersegmental vessels”.
For `Oc1ccccc1/C=C/c1ccccn1` [Compound 1, (E)-2-[2-(Pyridin-2-yl)vinyl]phenol], the “inhibition … (number of primary hyaloid vessels)” value in data set [1] (setting [4]) is “inhibit developmental angiogenesis of the zebrafish hyaloid vasculature in a statistically significant manner”.
As for `Cl.Oc1ccccc1/C=C/c1ccccn1` [Compound 2, (E)-2-[2-(Pyridin-2-yl)vinyl]phenol hydrochloride], the “inhibition … (number of primary hyaloid vessels)” value in data set [1] (setting [4]) and in data set [1] (setting [5]) was “inhibit developmental angiogenesis of the zebrafish hyaloid vasculature in a statistically significant manner” in each case. Further, the “inhibition … (number of intersegmental vessels)” value in data set [2] was “inhibit developmental angiogenesis of zebrafish intersegmental vessels in a statistically significant manner”.
In the case of `Oc1ccccc1/C=C/c1cnccn1` [Compound 3, (E)-2-[2-(Pyrazin-2-yl)vinyl]phenol], the “inhibition … (number of primary hyaloid vessels)” value in data set [1] (setting [4]) and in data set [1] (setting [5]) was “inhibit developmental angiogenesis of the zebrafish hyaloid vasculature in a statistically significant manner” each time. For the same compound, the “inhibition … (number of intersegmental vessels)” value in data set [2] is “inhibit developmental angiogenesis of zebrafish intersegmental vessels in a statistically significant manner”.
For `Cc1cccc(/C=C/c2ccccc2O)n1.Cl` [Compound 8, (E)-2-[2-(6-Methylpyridin-2-yl)vinyl]phenol hydrochloride], the “inhibition … (number of primary hyaloid vessels)” value in data set [1] (setting [4]) and in data set [1] (setting [5]) was “inhibit developmental angiogenesis of the zebrafish hyaloid vasculature in a statistically significant manner” in each case. Besides, the “cell viability (MTT assay)” value in data set [3] is given as “does not affect cell viability”.
In the case of `C/C(=C\c1ccccc1O)c1cnccn1` [Compound 11, (E)-2-[2-(Pyrazin-2-yl)prop-1-enyl]phenol], in data set [1] (setting [4]), the “inhibition … (number of primary hyaloid vessels)” value is recorded as “inhibit developmental angiogenesis of the zebrafish hyaloid vasculature in a statistically significant manner”.
Turning to `Cc1ccc(O)c(/C=C/c2cnccn2)c1` [Compound 13, (E)-4-Methyl-[2-(2-(pyrazin-2-yl)vinyl)]phenol], in data set [1] (setting [4]), the “inhibition … (number of primary hyaloid vessels)” value is given as “inhibit developmental angiogenesis of the zebrafish hyaloid vasculature in a statistically significant manner”.
As to `Cc1ccc(O)c(/C=C/c2cnccn2)c1.Cl` [Compound 14, (E)-4-Methyl-[2-(2-(Pyrazin-2-yl)vinyl)]phenol hydrochloride], the “inhibition … (number of primary hyaloid vessels)” value in data set [1] (setting [4]) was “inhibit developmental angiogenesis of the zebrafish hyaloid vasculature in a statistically significant manner”.
For the compound `Cl.Oc1ccccc1/C=C/c1ncccn1` [Compound 15, (E)-2-[2-(Pyrimidin-2-yl)vinyl]phenol hydrochloride], the “inhibition … (number of primary hyaloid vessels)” value in data set [1] (setting [4]) is on record as “inhibit developmental angiogenesis of the zebrafish hyaloid vasculature in a statistically significant manner”. For the same compound, the “angiogenesis (sprout formation) in aortic rings” value in the data set with mouse aortic ring is recorded as “block angiogenesis (sprout formation); also recorded: inhibit the formation of sprouts in a statistically significant manner”. For the same compound, in data set [3], the “cell viability (MTT assay)” value was “does not affect cell viability”.
Take `COc1ccccc1C#Cc1cnccn1` [Compound 19, 2-[2-(2-Methoxyphenyl)ethynyl]pyrazine]: in data set [1] (setting [5]), the “inhibition … (number of primary hyaloid vessels)” value is recorded as “inhibit developmental angiogenesis of the zebrafish hyaloid vasculature in a statistically significant manner”. The “inhibition … (number of intersegmental vessels)” value in data set [2] is “inhibit developmental angiogenesis of zebrafish intersegmental vessels in a statistically significant manner”.
In the case of `Cl.Oc1ccccc1C#Cc1cnccn1` [Compound 20, 2-[2-(pyrazin-2-yl)ethynyl]phenol hydrochloride], the “inhibition … (number of primary hyaloid vessels)” value in data set [1] (setting [4]) and in data set [1] (setting [5]) was “inhibit developmental angiogenesis of the zebrafish hyaloid vasculature in a statistically significant manner” each time. For the same compound, the “angiogenesis (sprout formation) in aortic rings” value in the data set on mouse aortic ring is recorded as “block angiogenesis (sprout formation); also recorded: inhibit the formation of sprouts in a statistically significant manner”. Moreover, in data set [2], the “inhibition … (number of intersegmental vessels)” value was “inhibit developmental angiogenesis of zebrafish intersegmental vessels in a statistically significant manner”. The “cell viability (MTT assay)” value in data set [3] is “does not affect cell viability”.
On to `Cl.Oc1ccccc1/C=C/c1ncc[nH]1` [Compound 23, (E)-2-(2-(IH-Imidazol-2-yl)vinyl)phenol hydrochloride], for which the “inhibition … (number of primary hyaloid vessels)” value in data set [1] (setting [4]) is given as “inhibit developmental angiogenesis of the zebrafish hyaloid vasculature in a statistically significant manner”.
